Laboratory results as given in paper PMC12811996, “Exploration and Characterization of the Antimalarial Activity of Pyrimidine‐2,4‐Diamines for which Resistance is Mediated by the ABCI3 Transporter” (Chemmedchem, 2025).
Where two headings read alike, the source gives them in different places.

Legend:
physchem [1] = assay type: physicochemical; settings: kinetic in PBS, pH 7.4; read-out: Aqueous solubility pH 7.4
Experimental: (§1) The aqueous solubility and in vitro metabolic stability of selected analogs were assessed to determine if they had favorable parameters (Table 9 ).These analogs were selected based on their potency and the modifications that were incorporated, which led to compounds 55 and 56. […] The high lipophilicity of analogs 1, 11, and 16 was not favorable for metabolic stability.
(§2) This was performed as previously described.^[ [14] ^, [16] ^]

physchem [2] = assay type: physicochemical; settings: shake-flask method; listed as 1
Experimental: as §2

in vitro [3] = assay type: in vitro ADME
Experimental: as §1, §2

[4] = test system: W482-resistant P. falciparum 3D7 populations; assay: 72 h Pf LDH assay against W482-selected populations; assay type: cell-based, Plasmodium falciparum; settings: for EC50: 72 h Pf LDH assay
Experimental: To identify the mechanism by which the pyrimidine‐2,4‐diamine class kills the P. falciparum parasite, a forward genetic study was performed on the hit compound W482 (1). We selected W482 (1) as the representative compound from this class, as the forward genetics and phenotype assays were performed in parallel to the medicinal chemistry described in the prior section. […] Genomic DNA was then prepared from these two resistant populations and the parental 3D7 strain and whole genome sequenced.
Figure 3 The activity of W482 (1) against W482‐selected populations and their 3D7 parental. The data are mean and SD from 3 independent 72 h Pf LDH assays.
This was performed as previously described.^[ [14] ^] Briefly, 3D7 wildtype parasites initially exposed to 2 × EC50 (0.3 µM) of W482 (1) and incremental increases in EC50 were applied until 10 × EC50 was reached. The resistant populations were not cloned for whole‐genome sequencing.

PfABCI3-HAreg parasites = assay: Parasite proliferation assay with PfABCI3-HAreg parasites (SYBR Safe, 72 h); assay type: cell-based, Plasmodium falciparum; settings: mean ± SEM, n = 4; for IC50: 72 h
Experimental: Glucosamine (GlcN) (5 mM) was used to reduce the level of pfabci3‐ha. Chloroquine and MMV020746 were used as negative and positive controls, respectively.
Figure 4 Sensitivity of PfABCI3‐HAreg parasites to growth inhibition by chloroquine (a), MMV020746 (b), and W482 (1) (c). Data for parasites in which pfabci3‐ha mRNA was reduced (+ GlcN) are shown in red. GlcN (5 mM) was added to the parasites 48 h prior to the assay and maintained throughout the 72 h assay. The data for parasites expressing a normal level of PfABCI3‐HA (‐GlcN) are shown in black. The data in all panels are from four independent experiments performed on different days. […] Parasites that were treated with or without GlcN (5 mM) were tested concurrently in each assay. TEXT PRINTED IN THE PICTURE: chloroquine: IC50 ± SEM (nM) - GlcN: 12.6 ± 1.1; IC50 ± SEM (nM) + GlcN: 11.9 ± 1.5 | MMV020746: IC50 ± SEM (nM) - GlcN: 104 ± 13; IC50 ± SEM (nM) + GlcN: 32.9 ± 3.9 | W482 (1): IC50 ± SEM (nM) - GlcN: 312 ± 28; IC50 ± SEM (nM) + GlcN: 153 ± 12
Parasite proliferation assays were performed with PfABCI3‐HAreg parasites^[ [19] ^] according to a previously described method, with the fluorescent nucleic acid intercalating dye SYBR Safe used to measure parasite viability.^[ [32] ^, [33] ^] The assays were commenced with cultures consisting of predominantly ring‐stage parasites with a starting hematocrit of 1% and parasitemia of 1%. […] It was shown previously that there is a reduction in pfabci3‐ha mRNA in PfABCI3‐HAreg exposed to 5 mM GlcN and a decrease in parasite viability over time.^[ [19] ^] The level of knockdown of the protein is not known.

[5] = test system: P. falciparum 3D7 parasites; assay: Stage of asexual arrest assay; assay type: cell-based, Plasmodium falciparum
Experimental: The asexual stage of arrest and parasite reduction ratio (PRR) assays were undertaken on W482 (1) to assess the speed‐of‐asexual kill and the alignment of the pyrimidine‐2,4‐diamine class with the Target Candidate Profiles (TCPs).^[ [27] ^] […] Parasite samples were collected from the culture at 12, 24, 36, 48, and 60 h, and microscopy was performed on Giemsa‐stained thin blood‐smeared samples. These samples were also quantified with flow cytometry using SYBR Green.
(§3) Figure 5 a) Stage of arrest assay showing that W482 (1) blocks ring‐trophozoite transition in the asexual stage of P. falciparum. […] Replicates of Giemsa‐stained blood smears can be found in Figure S4 (Supporting Information). c) Parasite reduction ratio assay conducted at 10 × EC50 of W482 (1). Data represent means and SD of P. falciparum 3D7 parasite survival measuring 3 independent replicates by two‐color flow cytometry using CFDA‐SE and Hoescht 33,342 staining.

[6] = test system: P. falciparum 3D7 parasites; assay: P. falciparum 3D7 asexual stage parasite LDH assay, 72 h; assay type: cell-based, Plasmodium falciparum
Experimental: (§4) To establish the SAR, the antiparasitic activity of the analogs was determined using an assay that measures the lactate dehydrogenase (LDH) activity of asexual P. falciparum 3D7 parasites after 72 h of compound treatment. Mammalian cytotoxicity was monitored using an assay that measures the growth of HepG2 cells using Cell Titer‐Glo after 48 h of compound treatment.
This was performed as previously described, whereby lactate dehydrogenase (LDH) was used as a metabolic marker for parasite growth after a 72‐h incubation period.^[ [14] ^, [30] ^]

Albumax = Albumax (Bos taurus, UniProt P02769); assay: in vitro; assay type: in vitro ADME
[7] = test system: Plasmodium falciparum strain 3D7A; assay: Parasite reduction ratio assay; assay type: cell-based
Text: as §3
Samples of parasites were collected at 24‐ and 48‐hour timepoints, whereby the compound was washed out and fresh erythrocytes pre‐labeled with intracellular dye were added. Samples were then incubated for 18 days, and then the number of viable parasites was quantified by flow cytometry (Figure 5c).
This assay was conducted following a previously described protocol using the Plasmodium falciparum strain 3D7A, MRA‐151.^[ [19] ^, [28] ^] The human biological samples used in the study were sourced ethically, and their research use was conducted in accordance with the terms of informed consent under an IRB/EC‐approved protocol.

in vitro [8] = assay type: cell-based; settings: human; HepG2 viability over 48 h, Cell Titer-Glo; means and SDs, 3 experiments; read-out: HepG2 CC50 (SD)
Experimental: as §4
This was performed as previously described.^[ [14] ^, [31] ^]

[9] = test system: late stage (IV‐V) gametocytes; settings: at 5 µM; cited from earlier work
P. berghei liver stage = settings: at 50 µM; cited from earlier work
[10] = test system: early stage (I–III) gametocytes; settings: at 2.5 µM; cited from earlier work
hemoglobin catabolism = test system: hemoglobin catabolism; design: method as in PMID 27572391; settings: previous metabolomic profiling; cited from earlier work
[11] = test system: P. falciparum 3D7 parasites; settings: asexual P. falciparum 3D7; hits from GSK TCAMS screen / MMV Malaria Box; cited from earlier work
[12] = Plasmodium falciparum, 3D7, 72 h, P. falciparum 3D7, LDH activity, 72 h exposure, means and SDs, 3 or more experiments, read-out: Pf parasite EC50 (SD)

Sequence of Albumax (P02769 25-607): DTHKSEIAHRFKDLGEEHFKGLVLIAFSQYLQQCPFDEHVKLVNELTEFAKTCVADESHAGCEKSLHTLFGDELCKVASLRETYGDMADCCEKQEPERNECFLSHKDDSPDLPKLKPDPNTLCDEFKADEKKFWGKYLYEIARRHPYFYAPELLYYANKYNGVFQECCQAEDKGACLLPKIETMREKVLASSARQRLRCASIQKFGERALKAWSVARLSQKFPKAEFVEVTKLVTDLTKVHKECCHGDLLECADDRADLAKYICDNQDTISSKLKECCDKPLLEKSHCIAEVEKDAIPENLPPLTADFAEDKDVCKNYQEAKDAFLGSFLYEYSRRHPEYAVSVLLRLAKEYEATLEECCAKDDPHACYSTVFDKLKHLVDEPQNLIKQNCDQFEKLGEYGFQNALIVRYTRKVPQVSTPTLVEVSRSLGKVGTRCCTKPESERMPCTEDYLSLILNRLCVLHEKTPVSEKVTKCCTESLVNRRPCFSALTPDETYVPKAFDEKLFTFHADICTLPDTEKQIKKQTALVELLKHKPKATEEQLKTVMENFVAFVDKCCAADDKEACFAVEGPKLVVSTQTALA

Compound: 3‐Cyclohexyl‐N‐(4‐((4‐(dimethylamino)‐6‐methylpyrimidin‐2‐yl)amino)phenyl)propenamide [W482 (1)]
- solubility (physchem [1]): 3.8 µM
- eLogD (physchem [2]): 4.6–5.0
- Human liver microsomes CLint (in vitro [3]): 174 µL/min/mg
- Rat hepatocytes CLint (in vitro [3]): >92 µL/min/10^6 cells
- Human liver microsomes CLint (in vitro [3]; listed as 1): > 117 µL/min/mg
- EC50 ([4]; population #1, read-out: EC50 against W482-selected population #1): 396 nM
- EC50 ([4]; population #2, read-out: EC50 against W482-selected population #2): 407 nM
- fold decreased activity of resistant populations compared to parental 3D7 ([4]; two recovered populations vs parental 3D7): 2 fold
- IC50 (PfABCI3-HAreg parasites; PfABCI3-HAreg parasites expressing normal level of PfABCI3-HA (-GlcN)): 312 ± 28 nM
- IC50 (PfABCI3-HAreg parasites; PfABCI3-HAreg parasites with reduced pfabci3-ha mRNA (+ 5 mM GlcN)): 153 ± 12 nM
- fold lower IC50 for +GlcN parasites than -GlcN parasites (PfABCI3-HAreg parasites): 2.0 ± 0.1 fold
- asexual stage of arrest ([5]; 10 × EC50 (1.4 µM) for 60 h, Giemsa-stained smears): ring to trophozoite transition stage
- percentage of parasitemia over time ([5]; 10 × EC50 (1.4 µM), SYBR Green flow cytometry): declines after 36 h
- EC50 ([6]; parental 3D7 in resistance selection study, 72 h Pf LDH assay, 3 independent assays, read-out: EC50 against parental 3D7): 197 nM
- Albumax binding % bound (Albumax): 99.1%
- asexual speed-of-kill profile ([7]; 10 × EC50, 24 and 48 h treatment, P. falciparum 3D7): fast killing profile
- lag phase ([7]; parasite killing profile): 24 h

Compound: CCN(CC)c1cc(C)nc(Nc2ccc(NC(=O)CCC3CCCCC3)cc2)n1 [Compound 4]
- CC50 (in vitro [8]): 18000 nM
- EC50 [6, 12]: 520 nM

Compound: Cc1cc(N2CCCC2)nc(Nc2ccc(NC(=O)CCC3CCCCC3)cc2)n1 [Compound 7, 3‐Cyclohexyl‐N‐(4‐((4‐methyl‐6‐(pyrrolidin‐1‐yl)pyrimidin‐2‐yl)amino)phenyl)propanamide]
- CC50 (in vitro [8]): 12600 nM
- EC50 [6, 12]: 540 nM

Compound: CN(C)c1cc(Nc2ccc(NC(=O)CCC3CCCCC3)cc2)nc2ccccc12 [Compound 22, 3‐Cyclohexyl‐N‐(4‐((4‐(dimethylamino)quinolin‐2‐yl)amino)phenyl)propanamide]
- CC50 (in vitro [8]): 15900 nM
- EC50 [6, 12]: 2470 nM

Compound: Cc1cc(N(C)C)nc(Nc2ccc(NC(=O)Nc3ccccc3)cc2)n1 [MMV020243 (2)]
- inhibition of late stage (IV‐V) gametocytes [9]: 2%
- inhibition of P. berghei liver stage development (P. berghei liver stage): 2%
- inhibition of early stage (I–III) gametocytes [10]: 67%

Compound: Cc1cc(N2CCCC2)nc(Nc2ccc(NC(=O)CCc3ccccc3)cc2)n1 [MMV396669 (3)]
- metabolomic profile (hemoglobin catabolism): peptide signature consistent with hemoglobin catabolism inhibition
- inhibition of late stage (IV‐V) gametocytes [9]: 21%
- inhibition of P. berghei liver stage development (P. berghei liver stage): 3%
- EC50 [11]: 1070 nM
- inhibition of early stage (I–III) gametocytes [10]: 79%
